Reference: ChEMBL document CHEMBL1159134, “Heterocyclic guanidines as calcium antagonists” (Bioorg Med Chem Lett, 1994)
pEC50, pIC50: −log10 of the molar value. Where “and” joins values, the source holds several entries; their conditions need not be identical. Equal entries are not always repeated.

Columns and labels:
[1] = biological target: T1, Voltage-dependent L-type calcium channel subunit alpha-1C (Rattus norvegicus, UniProt P22002); assay: Binding of [3H]nitrendipine to calcium channel in rat heart membranes was determined; format: cell membranes, Membrane
T1 sequence (P22002 whole entry): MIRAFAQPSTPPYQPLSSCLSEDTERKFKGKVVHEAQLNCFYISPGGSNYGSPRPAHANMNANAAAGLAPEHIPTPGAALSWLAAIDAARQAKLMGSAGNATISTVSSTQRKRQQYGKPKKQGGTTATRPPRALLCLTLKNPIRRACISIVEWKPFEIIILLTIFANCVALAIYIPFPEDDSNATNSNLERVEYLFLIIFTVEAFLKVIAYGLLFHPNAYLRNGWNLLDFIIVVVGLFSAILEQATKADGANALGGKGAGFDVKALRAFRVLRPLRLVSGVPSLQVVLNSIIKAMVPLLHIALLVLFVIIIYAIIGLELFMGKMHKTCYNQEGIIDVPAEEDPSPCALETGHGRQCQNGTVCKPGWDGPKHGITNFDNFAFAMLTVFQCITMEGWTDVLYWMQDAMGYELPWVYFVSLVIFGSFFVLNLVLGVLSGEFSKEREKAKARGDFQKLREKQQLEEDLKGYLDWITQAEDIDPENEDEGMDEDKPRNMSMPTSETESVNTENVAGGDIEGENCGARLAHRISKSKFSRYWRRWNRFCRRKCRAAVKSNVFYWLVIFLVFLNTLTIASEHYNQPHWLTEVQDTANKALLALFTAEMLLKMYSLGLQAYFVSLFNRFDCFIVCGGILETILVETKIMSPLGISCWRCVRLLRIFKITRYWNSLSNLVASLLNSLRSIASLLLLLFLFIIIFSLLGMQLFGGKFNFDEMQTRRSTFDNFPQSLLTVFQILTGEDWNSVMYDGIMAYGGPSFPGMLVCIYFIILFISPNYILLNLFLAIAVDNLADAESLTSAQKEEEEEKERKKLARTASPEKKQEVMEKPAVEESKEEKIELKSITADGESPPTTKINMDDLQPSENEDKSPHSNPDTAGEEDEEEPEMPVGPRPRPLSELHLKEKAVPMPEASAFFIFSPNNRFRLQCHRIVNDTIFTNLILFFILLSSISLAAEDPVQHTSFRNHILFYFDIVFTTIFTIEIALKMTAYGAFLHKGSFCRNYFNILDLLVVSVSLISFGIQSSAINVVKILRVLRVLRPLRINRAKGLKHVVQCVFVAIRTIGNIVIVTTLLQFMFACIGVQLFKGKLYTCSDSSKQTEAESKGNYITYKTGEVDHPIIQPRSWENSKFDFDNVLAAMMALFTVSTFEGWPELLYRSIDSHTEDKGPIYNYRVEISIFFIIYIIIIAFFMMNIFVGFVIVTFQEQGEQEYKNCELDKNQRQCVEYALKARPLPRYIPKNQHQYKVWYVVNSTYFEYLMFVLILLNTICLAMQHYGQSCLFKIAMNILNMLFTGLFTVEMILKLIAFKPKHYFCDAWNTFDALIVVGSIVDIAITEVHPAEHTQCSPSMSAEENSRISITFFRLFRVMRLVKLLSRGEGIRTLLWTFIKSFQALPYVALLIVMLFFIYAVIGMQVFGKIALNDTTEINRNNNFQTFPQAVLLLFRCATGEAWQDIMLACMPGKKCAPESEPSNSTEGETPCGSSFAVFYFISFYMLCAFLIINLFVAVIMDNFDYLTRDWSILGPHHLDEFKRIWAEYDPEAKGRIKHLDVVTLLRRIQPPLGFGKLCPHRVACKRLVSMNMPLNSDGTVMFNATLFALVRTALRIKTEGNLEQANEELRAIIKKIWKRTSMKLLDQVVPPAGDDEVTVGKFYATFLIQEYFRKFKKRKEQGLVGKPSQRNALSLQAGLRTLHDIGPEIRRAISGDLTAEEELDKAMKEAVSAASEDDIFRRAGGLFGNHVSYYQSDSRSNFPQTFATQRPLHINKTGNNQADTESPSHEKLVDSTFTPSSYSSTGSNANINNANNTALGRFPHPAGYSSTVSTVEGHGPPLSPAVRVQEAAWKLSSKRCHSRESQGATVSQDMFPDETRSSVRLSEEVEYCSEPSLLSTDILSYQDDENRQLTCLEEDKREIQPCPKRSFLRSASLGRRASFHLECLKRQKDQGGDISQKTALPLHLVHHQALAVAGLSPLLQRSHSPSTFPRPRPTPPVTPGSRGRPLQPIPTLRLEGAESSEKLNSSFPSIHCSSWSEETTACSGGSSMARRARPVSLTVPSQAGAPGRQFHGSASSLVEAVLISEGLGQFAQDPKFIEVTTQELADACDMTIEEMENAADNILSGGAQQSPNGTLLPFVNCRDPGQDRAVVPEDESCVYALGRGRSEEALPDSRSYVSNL

[2] = Calcium channel-blocking effect was assessed in potassium ion depolarized guinea pig ileum strips by recording the contractile responses produced by varying concentrations of calcium chloride; format: functional, tissue-based; conditions: Cavia porcellus, read-out: pA2 (converted)
[3] = biological target: T1, Voltage-dependent L-type calcium channel subunit alpha-1C; assay: Binding of [3H]nitrendipine to calcium channel in rat heart membranes; format: cell membranes, Membrane
[4] = biological target: Voltage-gated L-type calcium channel (Rattus norvegicus, UniProt P22002+Q02485+P27732); assay: Binding of [3H]nitrendipine to calcium channel in rat cerebral cortex; format: tissue-based

Compound | pIC50 [1] | Kb [2] [nM] | pEC50 [3] | EC50 [4] [nM]
c1ccc(C(CCNC2=NCc3ccccc3CN2)c2ccccc2)cc1 | < 6.00 | 50.1 |  | 
c1ccc(C(CCNC2=NCCCN2)c2ccccc2)cc1 | < 6.00 | 34.7 |  | 
c1ccc(C(CCNC2=N[C@H]3CCCC[C@@H]3N2)c2ccccc2)cc1 | < 6.00 | 132 |  | 
c1ccc(C(CNC2=NCCCN2)c2ccccc2)cc1 | < 6.00 | 776 |  | 
CN1CCN=C1NCC(c1ccccc1)c1ccccc1 | < 6.00 | 1860 |  | 
c1ccc(C(CNC2=NCCN2)c2ccccc2)cc1 | < 6.00 | 676 |  | 
c1ccc(C(CNC2=NCCCCN2)c2ccccc2)cc1 | < 6.00 | 550 |  | 
c1ccc(C(NC2=NCCN2)c2ccccc2)cc1 | < 6.00 | 2510 |  | 
c1ccc([C@@H]2CCC[C@@H]2N/C2=N/CCCCCCCCCCC2)cc1 |  |  | 7.21 and 7.47 | 
CCCC(CN/C1=N/CCCCCCCCCCC1)(c1ccccc1)c1ccccc1 | < 6.00 | 53.7 | 7.47 | 61
c1ccc(C(CNC2=NCCCCCN2)c2ccccc2)cc1 | < 6.00 | 251 |  | 
CN1CCN=C1NCCC(c1ccccc1)c1ccccc1 | < 6.00 | 257 |  | 
CN1CCCN=C1NCCC(c1ccccc1)c1ccccc1 | < 6.00 | 240 |  | 
c1ccc(C(CCN/C2=N/CCCCCN2)c2ccccc2)cc1 | < 6.00 | 37.2 |  | 
c1ccc(C(CNC2=NCc3ccccc3CN2)c2ccccc2)cc1 | < 6.00 | 81.3 |  | 
CN1CCCN=C1NCC(c1ccccc1)c1ccccc1 | < 6.00 | 1100 |  | 
CN1CCN=C1NCCCC(c1ccccc1)c1ccccc1 | < 6.00 | 170 |  | 
c1ccc(C(CCNC2=NCCCCN2)c2ccccc2)cc1 | < 6.00 | 240 |  | 
COc1ccc([C@@H]2Sc3ccccc3N(CCN(C)C)C(=O)[C@@H]2OC(C)=O)cc1 [DILTIAZEM] |  | 41.7 |  | 
c1ccc(C(CNC2=N[C@H]3CCCC[C@@H]3N2)c2ccccc2)cc1 | < 6.00 | 141 |  | 
c1ccc(C(CCNC2=NCCN2)c2ccccc2)cc1 | < 6.00 | 57.5 |  | 
